Consider one substance from patent US20100093076A1, “SOLUBLE IL-27 RECEPTOR” (priority 2006, published 2010).

For one experiment, the system named is mouse spleens. Briefly: IL-27 EC90 determination, phosphorylated STAT3 in mouse spleens. Format: cell-based. Particulars: read-out: EC90 concentration. The text has this: (§1) Whole mouse spleens were harvested from C57 B1/6 mice and washed two times with 1×PBS before being plated out at 2×10^5 cells/well in assay media (RPMI 1640 plus 10% fetal bovine serum) in 96-well, round-bottom tissue culture plates. Total human PBMC (peripheral blood mononuclear cells) were thawed from a frozen vial collected from a leukapherisis donation and washed two times with 1×PBS before being plated out at 10^6 cells/well in assay media in 96-well, round-bottom tissue culture plates. […] Following pre-incubation, treatments were added to the plates containing the cells and incubated together at 37° C. for 15 minutes.
(§2) Following incubation, cells were washed with ice-cold wash buffer (BIO-PLEX Cell Lysis Kit, BIO-RAD Laboratories, Hercules, Calif.) and put on ice to stop the reaction according to manufacturer's instructions. […]
(§3) Capture beads (BIO-PLEX Phospho-Stat3 Assay, BIO-RAD Laboratories) were combined with 50 μL of 1:1 diluted lysates and added to a 96-well filter plate according to manufacture's instructions (BIO-PLEX Phosphoprotein Detection Kit, BIO-RAD Laboratories). […] After the final wash, beads were resuspended in 125 μL/well of bead suspension buffer, shaken for 30 seconds, and read on an array reader (BIO-PLEX, BIO-RAD Laboratories) according to the manufacture's instructions. Data were analyzed using analytical software (BIO-PLEX MANAGER 3.0, BIO-RAD Laboratories). […]

The next experiment has as its system total human PBMCs. Briefly: IL-27 EC90 determination, phosphorylated STAT3 in total human PBMCs. Format: cell-based. The conditions noted are these: read-out: EC90 concentration.
From the text: as §1, §2, §3

For the substance huIL-27: Human IL-27 (R&D Systems), the EC90 in the experiment on mouse spleens and in the experiment on total human PBMCs was 2 nM throughout.
